According to article PMC11568214, “The impact of 9-azaglycophymine and phenylguanidine derivatives on the proliferation of various breast cancer cell lines in vitro and in vivo” (Scientific Reports, 2024):

Experiments:
[1] = Histopathology of tumors, kidneys, livers and spleens in the 4T1 in vivo study; design: species or system BALB/c mice
From the text: Tissue samples of tumors, kidneys, livers and spleens were fixed in 4% (v/v) formalin. After fixation, tissues were embedded in paraffin blocks, and 4 µm thick sections were obtained, mounted on glass slides, stained with Hematoxylin Eosin, and analyzed by using an Olympus BX43 microscope (Olympus, Tokyo, Japan). All slides were scanned with a Leica Biosystems Aperio AT2 with ×400 magnification (n = 3 per group). Virtual slides generated from Leica Aperio AT2 (Wetzlar, Germany) were additionally analyzed with Aperio ImageScope (v12.4.3.5008) and with FIJI-ImageJ software.

MDA-MB-468 [2] = assay: Apoptosis analysis, AnnV/PI staining, flow cytometry; format: cell-based, human; conditions: MDA-MB-468, IC50 for 72 h
Procedure: (§1) Cells were seeded in 6-well plates and incubated for 24 h under standard culture conditions. […] For apoptosis analyses, the cell suspension was centrifuged for 3 min at 800 rpm, and the cell pellet was stained by using 100 µL of AnnV/PI working solution (5 µL of AnnV, 2 µL of PI in 100 µL of PBS) for 15 min at RT and protected from light. The staining was terminated by the addition of 900 µL of annexin binding buffer. Finally, all samples were analyzed by using flow cytometry (FACSAria III, BD Biosciences, New Jersey, USA).

MCF-7 [3] = assay: as above; format: cell-based, human; conditions: MCF-7, IC50 for 72 h
Procedure: as §1

BT-474 [4] = assay: as above; format: cell-based, human; conditions: BT-474, IC50 for 72 h; control cells 20%
Procedure: as §1

HCC1937 [5] = assay: as above; format: cell-based, human; conditions: HCC1937, IC50 for 72 h; control cells 19%
Procedure: as §1

4T1 [6] = assay: as above; format: cell-based, mouse; conditions: 4T1, IC50 for 72 h; control cells 31%
Procedure: as §1

4T1 [7] = assay: ROS production, DHR staining, flow cytometry; format: cell-based, mouse; design: key: ↑: induction; ↓: inhibition; ↔: no effect; conditions: 4T1, IC50 for 72 h
Procedure: The cells were stained with CFSE (1 µM) in PBS containing 0.1% (v/v) FCS for 10 min. Afterwards, cells were washed with PBS, and then seeded with growth medium in 6-well plates. The plates were incubated for 24 h under standard culture conditions. […] Subsequently, the cells were detached using 0.5 mL of 0.05% (v/v) Trypsin–EDTA for 3 min at 37 °C. Then trypsin was deactivated by the addition of FCS-containing growth medium. The cell suspensions were collected, centrifuged for 3 min at 800 rpm, and the cell pellets were resuspended in fresh PBS. Finally, the samples were analyzed by using flow cytometry. For ROS production analyses, the procedure was performed exactly as described above for the cell division experiments, except that the CFSE staining solution was replaced by DHR staining solution resulting in 1 µM of DHR in PBS containing 0.1% (v/v) FCS[34],[35].

MDA-MB-468 [8] = assay: NO production, DAF-FM staining, flow cytometry; format: cell-based, human; design: key: ↑: induction; ↓: inhibition; ↔: no effect; conditions: MDA-MB-468, IC50 for 72 h
Procedure: (§2) Afterwards, the medium was discarded and the cells were stained with DAF-FM (5 µM) in RPMI1640 with 10% (v/v) FCS for 1 h at 37 °C. The stain was completed by additional incubation for 15 min with serum-free medium. The cells were then detached, re-suspended in PBS and analyzed by flow cytometry.

MCF-7 [9] = assay: NO production, DAF-FM staining, flow cytometry; format: cell-based, human; design: key: ↑: induction; ↓: inhibition; ↔: no effect; conditions: MCF-7, IC50 for 72 h
Procedure: as §2

BT-474 [10] = assay: NO production, DAF-FM staining, flow cytometry; format: cell-based, human; design: key: ↑: induction; ↓: inhibition; ↔: no effect; conditions: BT-474, IC50 for 72 h
Procedure: as §2

HCC1937 [11] = assay: NO production, DAF-FM staining, flow cytometry; format: cell-based, human; design: key: ↑: induction; ↓: inhibition; ↔: no effect; conditions: HCC1937, IC50 for 72 h
Procedure: as §2

In the case of `O=c1[nH]c(Nc2ccc([N+](=O)[O-])cc2)nc2ccccc12` [Compound 19, 4′-nitro-9-aza-glycophymine], the “morphological changes in kidney, spleen and liver tissue” value ([1]; 5 and 20 mg/kg i.p., day 21, compared to control group) is reported as “did not cause significant morphological changes”, the “extent of tumor necrosis” value ([1]; treated animals in comparison to the control group, day 21) is reported as “a higher extent of necrosis was found in treated animals” and the “induction of apoptotic cell death” value (MDA-MB-468 [2]) is reported as “did neither activate caspases nor apoptotic cell death”. The “induction of apoptotic cell death” value (MCF-7 [3]) was “did neither activate caspases nor apoptotic cell death”, the “percentage of apoptotic cells” value (BT-474 [4]) was 51% and the “percentage of apoptotic cells” value (HCC1937 [5]) was 47%. The “percentage of apoptotic cells” value (4T1 [6]) was 69%, the ROS (4T1 [7]) was “↔” and the NO (MDA-MB-468 [8]) was “↔”. For the same molecule, the NO (MCF-7 [9]) was “↑”, the NO (BT-474 [10]) was “↑” and the NO (HCC1937 [11]) was “↑”.
